Values joined by “and” are separate entries in the source; they are usually repeats but may differ in a detail not shown here. Equal entries are not always repeated.
Tested on: phospho-IκBα (Ser32)
Experiment: NanoBiT cell-based immunoassay, phosphorylated IκBα in human breast tumor epithelial cells
Details: for P-IkB Average: background subtracted; for P-IkB Raw data / P-IkB Subtract reagent background: listed as TNF
Experimental: All cell lines used are from ATCC. […] Human Primary Mammary Epithelial Cells (#H-6035), Human Breast Tumor Epithelial Cells (#HC-6035), Complete Human Epithelial Cell Medium (#H6621), and Gelatin-Based Coating Solution (#H6950) were purchased from Cell Biologics. The cells were cultured according to the manufacturer’s procedure. All cells were grown at 37 °C in a 5% CO2 humidified incubator and passaged before reaching 80% cell confluency. Prior to each experiment, cells were counted by combining 30 µl of cell suspension with 30 µl of trypan blue. After gentle pipetting up and down to mix the cells and the dye, the cell number was determined using Bio-Rad TC 20 cell counter.
Prior to NanoBiT Cell-Based Immunoassay, 50,000 cells were seeded in 160 µl of complete growth media per well of a 96-well plate and incubated overnight. The cells were checked under microscope and it was determined that 50,000 cells per well in 96-well plate is under 90% confluency for all cells tested. If necessary, the cell culture media were replaced with serum-free media after the cells were stably adherent on the plate and incubated overnight. To treat cells with activators or inhibitors, medium was changed to 30 µl of medium containing inhibitors. If activation of a specific pathway is needed, the cells were stimulated with 10 µl of medium containing activators. To lyse the cells, 10 µl of lysis buffer containing 0.1% digitonin diluted in 1X immunoassay buffer with protease and phosphatase inhibitors was added and the plates were mixed vigorously for 20 min. Then, 50 µl of an antibody mix containing two primary antibodies against the target protein and NanoBiT detecting antibodies (0.3 µl each per well), diluted in 1X immunoassay buffer was added to the lysates. The plates were incubated at 23 °C for 90 min, followed by the addition of 25 µl of Nano-Glo® reagent consisting of Nano-Glo® Luciferase Assay Substrate mixed with 1X immunoassay buffer. Luminescence was measured using a plate-reading luminometer.
Single dose or dose response inhibitor treatments were performed prior to activation of the pathways as follows. For IκBα, the cells were treated in 30 µl medium with IKK16 or MG132 for 60 min before the addition of 10 µl of DMEM containing appropriate concentration of TNFα. To measure phosphorylation of AKT or STAT3, the corresponding NanoBiT immunoassays were developed with MCF-7 or A431 cells, respectively, according the same scheme used to develop the IκBα assay using the primary antibodies for AKT and STAT3 described in the reagents section. For the AKT assay, MCF-7 cells were incubated overnight in phenol-red free DMEM medium (Gibco #21063-029) without serum. Treatment with LY294002 was performed in 30 µl medium and cells were incubated for 60 min before the addition of 1 µM Insulin. To measure STAT3 phosphorylation, A431 cells were incubated overnight in DMEM medium without serum. […] After addition of the stimulators, the cells were incubated for additional times as follows. IκBα phosphorylation and degradation analyses required both time courses and single time points as described in figures. […] The NanoBiT immunoassay protocol was followed as described above.
All 96-well assay plates were read using a GloMax® 96 Microplate Luminometer from Promega. The instrument was set to 0.5 s integration time. In order to obtain net change of signal, the reagent background values (signal from the well containing all reagent except primary antibodies) were subtracted from the sample values. To plot and analyze the data, Microsoft Excel and GraphPad Prism® Software were used. IC50 values were determined by using a nonlinear regression fit to a sigmoidal dose response (variable slope).

TNFα
P-IkB Average (TNF 2 min): 10421
P-IkB Raw data (TNF 2 min): 19130 and 19610 and 19580
P-IkB Subtract reagent background (TNF 2 min): 10591 and 10561 and 10111
P-IkB Average (TNF 4 min): 13121
P-IkB Raw data (TNF 4 min): 21660 and 22370 and 22390
P-IkB Subtract reagent background (TNF 4 min): 13351 and 13371 and 12641
P-IkB Average (TNF 6 min): 21828
P-IkB Raw data (TNF 6 min): 29170 and 32480 and 30890
P-IkB Subtract reagent background (TNF 6 min): 23461 and 21871 and 20151
P-IkB Average (TNF 8 min): 28528
P-IkB Raw data (TNF 8 min): 35450 and 39050 and 38140
P-IkB Subtract reagent background (TNF 8 min): 30031 and 29121 and 26431
P-IkB Average (TNF 10 min): 34158
P-IkB Raw data (TNF 10 min): 41810 and 44090 and 43630
P-IkB Subtract reagent background (TNF 10 min): 35071 and 34611 and 32791
P-IkB Average (TNF 12 min): 36728
P-IkB Raw data (TNF 12 min): 43840 and 47190 and 46210
P-IkB Subtract reagent background (TNF 12 min): 38171 and 37191 and 34821
P-IkB Average (TNF 15 min): 37461
P-IkB Raw data (TNF 15 min): 43590 and 48210 and 47640
P-IkB Subtract reagent background (TNF 15 min): 39191 and 38621 and 34571
P-IkB Average (TNF 30 min): 32864
P-IkB Raw data (TNF 30 min): 39720 and 43050 and 42880
P-IkB Subtract reagent background (TNF 30 min): 34031 and 33861 and 30701
P-IkB Average (TNF 45 min): 30164
P-IkB Raw data (TNF 45 min): 36730 and 40420 and 40400
P-IkB Subtract reagent background (TNF 45 min): 31401 and 31381 and 27711
P-IkB Average (TNF 60 min): 35274
P-IkB Raw data (TNF 60 min): 41100 and 46170 and 45610
P-IkB Subtract reagent background (TNF 60 min): 37151 and 36591 and 32081

Reference: publication PMC6941952, “A homogeneous bioluminescent immunoassay to probe cellular signaling pathway regulation” (Communications Biology, 2020)
